In patent publication US20240025946A1, “Cyclic Tetrapeptides and Metal Complexes Thereof” (priority 2020, published 2024):
Numbered stars: 1 amine (or outer) side, 2 acyl side, 3 side chain; on linkers, the order of the positions; unused ones are H or OH. Square brackets hold non-standard residues; d marks the D form. Ends that are not written are not given here. SAsp = aspartic acid substituted by -SH; βAsp = O=C(O)[C@H](CC(=O)[*:2])N[*:1]; β3hE = N[C@@H](CCC(=O)O)CC(=O)O; βAla = NCCC(=O)O

Experiments:
[1] = test system: HT-29 cells; assay: In vitro toxicity test, crystal violet; format: cell-based, human; conditions: HT-29, 24 h; for IC50: concentration at 50% viability, mean (SD), n.d. = not detected as it is too high
Procedure: 96-well plates were prepared such that every well contains 10,000 cells in 100 μL medium, and the cells were allowed to adhere overnight.
To all wells but the positive control, 10 μL of each solution of the examined CA (2.4, 6, 12, 24, 48, and 120 mM) were added to reach final concentrations of 0.2, 0.5, 1, 2, 4, and 10 mM. To the positive control wells, 10 μL of H2O was added. Each condition was performed in triplicates. The plates were incubated at 37° C. and 5% CO2 for 24 h, after which the medium was removed, washed with fresh medium and 50 μL of crystal violet solution (0.5% crystal violet powder in 20 mL MeOH and 80 mL H2O) to each well and the plates were gently shaken (60 rpm) for 20 min. The plates were then washed with H2O until no more unbound dye was observed and allowed to dry overnight. 200 μL of MeOH were added to each well, and the plates were gently shaken (60 rpm) for 20 min, after which their absorbance at 560 nm was read with a plate reader. The toxicity of each concentration of CA was calculated according to equation 3:
(§1) A[CAx]—absorbance of the pre-toxified well in the presence of X mM of CA
(§2) A[blank]—absorbance of blank wells (contain nothing)
A[POS]—absorbance of well that contains no CA
(§3) Each experiment was performed on three independent occasions. Values are mean±SD of >3 repeats each performed in triplicate.

[2] = test system: HT-29 cells; assay: In vitro recovery test: Pb detoxification of poisoned human cells, crystal violet; format: cell-based; conditions: for Recovery HT-29 (%): highest concentration 10 mM (5 equiv.), vs poisoned untreated cells, mean, SD; for effect of the counter cation (Ca vs. Na salt) on detoxification activity: HT-29, FIG. 2d
Procedure: (§4) Desalted peptides were then assessed for their ability to detoxify Pb (FIGS. 2a-d). The inventors designed two assays for rapid and reliable screening of potential CAs both in vivo on bacteria and then in vitro on human cell culture. Briefly, DH5a or HT-29 cells were first exposed to Pb(NO3)2 slightly below the minimal inhibitory concentration and then treated with various concentrations of the investigated CA, ranging from 0.1 to 10 equivalents. The viability of the cells was determined by colony counting or by crystal violet (Feoktistova et al, 2016), for the bacteria and the human cells, respectively, and was compared to poisoned cells that were not treated with any CA as the negative control. […] On the other hand, testing the compounds on human cells cannot be performed with insoluble compounds but is more relevant for medicinal purposes.
96-well plates were prepared such that every well contains 10,000 cells in 100 μL medium, and the cells were allowed to adhere overnight. To all wells but the positive control, 10 μL of 22 mM Pb(NO3)2 were added (final concentration 2 mM). 10 μL of H2O was added to the positive control wells. 60 min after addition of metal, 10 μL of each solution of the examined CA (2.4, 6, 12, 24, 48, and 120 mM) were added to reach final concentrations of 0.2, 0.5, 1, 2, 4, and 10 mM (which are 0.1, 0.25, 0.5, 1, 2, and 5 equivalents, respectively). To the positive control wells containing no metal and the negative control wells containing metal but no CA, 10 μL of H2O were added. Each condition was performed in triplicates. The plates were incubated at 37° C. and 5% CO2 for an additional 23 h, after which the medium was removed, washed with fresh medium and 50 μL of crystal violet solution (0.5% crystal violet powder in 20 mL MeOH and 80 mL H2O) to each well and the plates were gently shaken (60 rpm) for 20 min. The plates were then washed with H2O until no more unbound dye was observed and allowed to dry overnight. 200 μL of MeOH were added to each well, and the plates were gently shaken (60 rpm) for 20 min, after which their absorbance at 560 nm was read with a plate reader. The recovery of each concentration of CA was calculated according to equation 2:
as §1, §2
A[NEG]—absorbance of the pre-toxified well that contains no CA
as §3

[3] = test system: DH5α E. coli; assay: In vivo recovery test: Pb detoxification of poisoned bacteria, colony counting; format: cell-based; conditions: for Recovery DH5α (%): highest concentration 120 mM (10 equiv.), Pb(NO3)2 12 mM, vs poisoned untreated cells, mean; for detoxification ability in poisoned E. coli (in words): compared to the benchmark compounds, FIG. 2a
Procedure: as §4
HRMS (ESI) m/z calculated for C16H26N4O4SNa^+ [M+Na]^+ 427.14442; found: 427.14447 In vivo recovery tests A single colony of DH5a E. coli WT cells was grown overnight at 37° C. and 220 rpm in Tris Minimal Medium (TMM, pH 6.0; 5 mL) without antibiotics. The culture was then diluted to an OD600 of 0.03 with additional TMM to a total volume of 5 mL, and its OD600 was monitored. Upon cell density of 0.25 (which was achieved after 3-5 h), 1 mL of the culture was transferred into a cell culture tube and was labeled as the positive control. To additional 3 mL of the culture, 36 μL of Pb(NO3)2 1 M were added (final concentration of 12 mM). Both cultures were shaken at 37° C. and 220 rpm for an additional 5 h.
Aqueous stock solutions of each CA were plated on freshly prepared agar-LB plates such that the final concentration of each compound is equal to 0.5, 1, 2, 5, and 10 equivalents, compared to the amount of Pb(NO3)2 in 50 μL pre-toxified culture. The stock solutions were prepared such that plating and equally spreading 30 μL of each solution will provide the desired amount of CA. To additional two plates, 30 μL of H2O was added.
50 μL of the pre-toxified culture were homogenously spread to each CA-containing plate, 5 h after adding the metal to the culture. The Pb-containing culture was also plated on one of the two H2O-containing plates and was labeled as the negative control. Lastly, 50 μL of the non-toxified culture were platted on the second H2O-containing plate and was labeled as positive control. All plates (positive and negative control and five plates for each examined compound) were then incubated at 37° C. overnight. The plates were then imaged, and the colonies were counted (with Vilber Quantum Visualization System). The recovery of each concentration of CA was calculated according to equation 1: […]
#CAx—number of colonies of pre-toxified culture in a plate containing X mM of CA
#NEG—number of colonies of pre-toxified culture in a plate containing no CA
as §3

[4] = Aqueous solubility of the peptides; format: physicochemical
Description: Attempts to solubilize them, including in different pH conditions, formulation with PEG or co-solvent systems with DMSO failed. Therefore, two analogs of 1 where βAla is substituted by PAsp or PhGlu, to form peptides 1a and 1b, respectively, were synthesized. […] Their low activity might be related to either (a) competition in coordination with Pb^2+ by the two carboxylates, which destabilizes the complexation, or (b) a decrease in their metal selectivity and coordination alkali or alkaline earth metal ions.

[5] = test system: male mice (C57BL/6); assay: Pb-poisoned mice: blood lead level and urinary Pb by ICP-MS; format: in vivo; conditions: for BLL / Urinary Pb (ppm): 30 mg kg^−1 day^−1, days 10-16; for BLL: blood on day 18, eight mice; for Urinary Pb (ppm): urine on day 18
Procedure: Peptide 8a was then tested in mice. 40 male mice (C57BL/6) aged 6-8 weeks were provided with 20 mM Pb(OAc)2 solution as the sole water supply for seven days (days 1-7). This poisoning route mimics chronic exposure in humans. Two days after returning to clean water (day 9), they were randomly divided into five groups of eight mice. They received a single treatment per day for seven days (days 10-16) of either CaNa2EDTA, DMSA, or 8a at a concentration of 30 mg kg^−1 except for group 1 that served as the negative control (Table 3).
Blood samples (100 μL) were collected before dosing the mice on days 10-15 and on day 18, which is two days after the last dosing and the day by which the experiment was terminated. Urine was also collected from 34 animals on day 18 and was kept frozen until analysis.

[6] = soluble^b = with the addition of 2 equiv. NaOH or 1 equiv. of Ca(OH)2
[7] = inhibition at the highest concentration (10 mM), mean, SD
[8] = also different pH, PEG formulation, DMSO co-solvent failed

Molecule: N[C@@H](CCC(=O)N[C@@H](CS)C(=O)NCC(=O)O)C(=O)O [GSH, glutathione]
- IC50 ([1]; Homo sapiens): 9.6 mM
- inhibition at 10000 µM ([1]; Homo sapiens, inhibition at the highest concentration (10 mM), mean, SD, read-out: Toxicity Maximal inhibition (%)): 57%
- Recovery HT-29 (%) ([2]; Pb(NO3)2 2 mM): 126%
- Recovery DH5α (%) [3]: 39%

Molecule: O=C(O)C[C@@H]1NC(=O)CCNC(=O)[C@H](CC(=O)O)NC(=O)CCNC1=O [compound 5, Asp-βAla-Asp-βAla]
- Aqueous solubility [4, 6]: soluble^b
- Toxicity Maximal inhibition (%) [1, 7]: 44%
- Recovery HT-29 (%) ([2]; Pb(NO3)2 2 mM): 121%
- Recovery DH5α (%) [3]: 150%

Molecule: cyc-[SAsp-βAla-Asp-βAla] (cyclo([SAsp][βAla]D[βAla])) [8a]
- dose-dependent recovery of HT-29 cells (in words) ([2]; Pb(NO3)2 2 mM, CA added 1 h later, vs all investigated peptides and standards of care, FIG. 4): best results
- removal of Pb in urine compared with the SOCs ([5]; IV and oral, vs CaNa2EDTA and DMSA, day 18): 1.3-2.2 folds
- BLL ([5]; IV): 16.0 ± 1.5 µg/dL
- Urinary Pb (ppm) ([5]; IV): 452 ± 47 ppm
- Pb expelled in urine compared with the untreated group ([5]; IV, day 18): 2.9 folds
- reduction of average BLL compared to no treatment ([5]; IV, day 18): 2.1 folds
- reduction of average BLL compared with CaNa2EDTA ([5]; IV, day 18): 1.6 folds
- BLL ([5]; Oral): 17.7 ± 1.3 µg/dL
- Urinary Pb (ppm) ([5]; Oral): 435 ± 28 ppm
- Pb expelled in urine compared with the untreated group ([5]; oral, day 18): 2.8 folds
- reduction of BLL compared with DMSA ([5]; oral, day 18): 1.3 folds
- reduction of BLL compared with no treatment ([5]; oral, day 18): 1.9 folds

Molecule: [Cys-βhGlu]2 (C[β3hE]C[β3hE]; not fully specified (bridges); printed as [Cys-βhGlu]2; also: cyclic, ring type not given here) [1b, cyclic tetrapeptide]
- solubility as Na or Ca salts [4]: high solubility
- Aqueous solubility [4, 6]: soluble^b
- detoxification ability in poisoned E. coli (in words) [3]: unsatisfied
- Recovery DH5α (%) [3]: 30%

Molecule: O=C(O)CN(CCN(CC(=O)O)CC(=O)O)CC(=O)O [EDTA, ethylenediaminetetraacetic acid]
- effect of the counter cation (Ca vs. Na salt) on detoxification activity [2]: higher activity as a Ca-salt

Molecule: O=C1CCNC(=O)[C@@H](CS)NC(=O)CCNC(=O)[C@H](CS)N1 [peptide 2, Cys-βAla-DCys-βAla]
- Aqueous solubility [4, 8]: low aqueous solubility
- Aqueous solubility [4, 6]: insoluble
- detoxification ability in poisoned E. coli (in words) [3]: outstanding results

Molecule: cyc[Cys-βAla-Asp-βAla] [peptide 8]
- Aqueous solubility [4, 6]: soluble^b
- Toxicity Maximal inhibition (%) [1, 7]: 15±5%
- effect of the counter cation (Ca vs. Na salt) on detoxification activity [2]: barely affected by the counter cation
- detoxification ability in poisoned E. coli (in words) [3]: outstanding results
- Recovery DH5α (%) [3]: 279%

Molecule: O=C1CCNC(=O)[C@H](CS)NC(=O)CCNC(=O)[C@H](CS)N1 [compound 1, Cys-βAla-Cys-βAla]
- Aqueous solubility [4, 8]: low aqueous solubility
- Aqueous solubility [4, 6]: insoluble
- increase of recovery of poisoned E. coli ([3]; DH5α, treatment after Pb(NO3)2): more than 8 fold
- detoxification ability in poisoned E. coli (in words) [3]: outstanding results

Molecule: C[βAsp]C[βAsp] (cysteine pairing not given here) [1a]
- solubility as Na or Ca salts [4]: high solubility
- Aqueous solubility [4, 6]: soluble^b
- Toxicity Maximal inhibition (%) [1, 7]: 0%
- Recovery HT-29 (%) ([2]; Pb(NO3)2 2 mM): 106%
- detoxification ability in poisoned E. coli (in words) [3]: unsatisfied
- Recovery DH5α (%) [3]: 2%

Molecule: O=C([O-])CN(CCN(CC(=O)[O-])CC(=O)O)CC(=O)O.[Na+].[Na+] [Na2EDTA]
- IC50 [1]: 0.6 mM
- Toxicity Maximal inhibition (%) [1, 7]: 72%
- Recovery HT-29 (%) ([2]; Pb(NO3)2 2 mM): 41%
- Recovery DH5α (%) [3]: 107%

Molecule: CSCC[C@@H]1NC(=O)CCNC(=O)[C@H](CCSC)NC(=O)CCNC1=O [compound 3, Met-βAla-Met-βAla]
- Aqueous solubility [4, 6]: insoluble
- Recovery DH5α (%) [3]: 139%

Molecule: O=C1CCNC(=O)[C@H](Cc2ccccc2)NC(=O)CCNC(=O)[C@H](CS)N1 [compound 9, Cys-βAla-Phe-βAla]
- Aqueous solubility [4, 6]: insoluble
- Recovery DH5α (%) [3]: 180%

Molecule: O=C1CCNC(=O)[C@H](Cc2c[nH]cn2)NC(=O)CCNC(=O)[C@H](CS)N1 [compound 7, Cys-βAla-His-βAla]
- Aqueous solubility [4, 6]: insoluble
- Recovery DH5α (%) [3]: 47%

Molecule: CSCC[C@@H]1NC(=O)CCNC(=O)[C@H](CS)NC(=O)CCNC1=O [compound 6, Cys-βAla-Met-βAla]
- Aqueous solubility [4, 8]: low aqueous solubility
- Aqueous solubility [4, 6]: insoluble
- detoxification ability in poisoned E. coli (in words) [3]: outstanding results

Molecule: O=C1CCNC(=O)[C@H](Cc2c[nH]cn2)NC(=O)CCNC(=O)[C@H](Cc2c[nH]cn2)N1 [compound 4, His-βAla-His-βAla]
- Aqueous solubility [4, 6]: Soluble
- IC50 [1]: 5.8 mM
- Toxicity Maximal inhibition (%) [1, 7]: 62%
- Recovery HT-29 (%) ([2]; Pb(NO3)2 2 mM): 106%
- Recovery DH5α (%) [3]: 80%
